Read-outs that look alike come from different tables or passages of the source.
Legend:
C. glabrata (ATCC 90030) [1] = assay: MIC80 and checkerboard synergy with antifungal agents; type: cell-based, Candida glabrata
HMEC = assay: Mammalian cytotoxicity, MTT reduction
C. albicans (ATCC 90028) = assay: MIC80 and checkerboard synergy with antifungal agents; type: cell-based, Candida albicans
HDAC [2] = assay: HDAC inhibitory activity in fungal protoplasts (Fluor-de-Lys); type: cell-based, Candida albicans; settings: C. albicans protoplasts; for HDAC inhibition, per cent in parentheses beside IC50 >20: concentration not given
Experimental: (§1) Protoplasts of C. albicans and C. glabrata are prepared by the […] method of Franzusoff et al.

HDAC [3] = assay: as above; type: cell-based, Candida glabrata; settings: C. glabrata protoplasts; for HDAC inhibition, per cent in parentheses beside IC50 >20: concentration not given
Experimental: as §1

A. fumigatus ATCC 1022 = assay: MIC80 and checkerboard synergy, broth microdilution (NCCLS M38-A); type: cell-based, Aspergillus fumigatus; settings: for conc. for 4-fold synergy: 48 hours; for MIC80: compound alone
HDAC [4] = assay: HDAC inhibitory activity in fungal protoplasts (Boc-Lys(Ac)-AMC); type: cell-based, Aspergillus fumigatus; settings: A. fumigatus protoplasts
C. glabrata (ATCC 90030) [5] = type: cell-based; settings: agar plates containing 4×MIC of the relevant azole alone
C. dubliniensis = assay: Clinical isolates, CLSI M27-A2 broth microdilution and checkerboard; type: cell-based; settings: Candida dubliniensis
[6] = Nakaseomyces glabratus, ATCC90030, compound alone, C. glabrata (ATCC 90030)
[7] = Candida albicans, ATCC90028, compound alone, C. albicans (ATCC 90028), read-out: MIC80
[8] = Nakaseomyces glabratus, ATCC90030, compound alone, C. glabrata (ATCC 90030), read-out: MIC80
[9] = with ketoconazole, A. fumigatus ATCC 1022
[10] = with fluconazole, A. fumigatus ATCC 1022
[11] = with itraconazole, A. fumigatus ATCC 1022
[12] = with voriconazole, A. fumigatus (ATCC 1022)

## O=C(Cc1ccc(CCCCCc2ccccc2)cc1)NO
C. glabrata (ATCC 90030) [1]; [6]
  MIC50: 6.25 µg/mL

## O=C(Cc1ccc(CCCCc2ccc(C(F)(F)F)cc2)cc1)NO
C. glabrata (ATCC 90030) [1]; [6]
  MIC50: > 25 µg/mL

## O=C(Cc1cccc(CCCCc2ccccc2)c1)NO
C. glabrata (ATCC 90030) [1]; [6]
  MIC50: 32 µg/mL

## O=C(Cc1ccc(CCC#Cc2ccc3nonc3c2)cc1)NO
C. glabrata (ATCC 90030) [1]; [6]
  MIC50: > 25 µg/mL

## O=C(Cc1ccc(CCCCc2ccc3c(c2)OCO3)cc1)NO
C. glabrata (ATCC 90030) [1]; [6]
  MIC50: > 25 µg/mL

## O=C(Cc1ccc(CCCCc2ccccc2C(F)(F)F)cc1)NO
C. glabrata (ATCC 90030) [1]; [6]
  MIC50: 12.5 µg/mL

## O=C(Cc1ccc(CCCCc2cccc(C(F)(F)F)c2)cc1)NO
C. glabrata (ATCC 90030) [1]; [6]
  MIC50: 12.5 µg/mL

## O=C(Cc1ccc(CCCCc2cc(F)c(F)cc2F)cc1)NO
C. glabrata (ATCC 90030) [1]; [6]
  MIC50: 3.1 µg/mL

## O=C(Cc1ccc(CCCCc2ccc3[nH]ccc3c2)cc1)NO
C. glabrata (ATCC 90030) [1]; [6]
  MIC50: > 25 µg/mL

## O=C(CCCCCC/C(=N\O)c1ccc(-c2ccccc2)cc1)NO
HMEC
  MTT HMEC: 6 µM

## O=C(NO)c1cccc(CCCc2ccccc2)c1 [Cpd 1]
C. albicans (ATCC 90028); [7]
  MIC: > 16 µg/mL
HDAC [2]
  HDAC inhibition IC50: 9.1 µg/mL
HDAC [3]
  HDAC inhibition IC50: > 20 µg/mL
  HDAC inhibition, per cent in parentheses beside IC50 >20: 38%

## O=C(NO)c1ccc(CCCCCc2ccccc2)cc1 [Cpd 3]
HMEC
  MTT HMEC: 9 µM

## O=C(Cc1ccc(CCCc2ccccc2)cc1)NO [Cpd 5]
C. albicans (ATCC 90028); [7]
  MIC: > 8 µg/mL
C. glabrata (ATCC 90030) [1]; [8]
  MIC: > 50 µg/mL
A. fumigatus ATCC 1022; [9]
  conc. for 4-fold synergy: 4 µg/mL
HDAC [2]
  HDAC inhibition IC50: > 20 µg/mL
  HDAC inhibition, per cent in parentheses beside IC50 >20: 42%
HDAC [3]
  HDAC inhibition IC50: > 20 µg/mL
  HDAC inhibition, per cent in parentheses beside IC50 >20: 37%
HMEC
  MTT HMEC: 47 µM

## O=C(CCc1ccc(CCc2ccccc2)cc1)NO [Cpd 7]
C. albicans (ATCC 90028); [7]
  MIC: > 8 µg/mL
C. glabrata (ATCC 90030) [1]; [8]
  MIC: 16 µg/mL
HDAC [2]
  HDAC inhibition IC50: > 20 µg/mL
  HDAC inhibition, per cent in parentheses beside IC50 >20: 15%
HDAC [3]
  HDAC inhibition IC50: > 20 µg/mL
  HDAC inhibition, per cent in parentheses beside IC50 >20: 27%
HMEC
  MTT HMEC: 10 µM

## COC(c1ccc(N(C)C)cc1)C(C)/C=C(C)/C=C/C(=O)NO (centres unmarked) [Cpd 10]
HMEC
  MTT HMEC: 50 µM

## COc1ccc(C(OC)C(C)(C)CCCCC(=O)NO)cc1 (centres unmarked) [Cpd 11]
HDAC [3]
  HDAC inhibition IC50: 50 µg/mL
HMEC
  MTT HMEC: 50 µM

## CC(/C=C/C(=O)NO)=C\C(C)Cc1ccc(N(C)C)cc1 (centres unmarked) [Cpd 12]
A. fumigatus ATCC 1022; [9]
  conc. for 4-fold synergy: 0.125 µg/mL
HMEC
  MTT HMEC: 44 µM

## C[C@H](/C=C/C=C/C(=O)NO)Oc1ccc(-c2ccccc2)cc1 [Cpd 15]
HDAC [2]
  HDAC inhibition IC50: > 20 µg/mL
  HDAC inhibition, per cent in parentheses beside IC50 >20: 18%

## O=C(NO)c1ccc(CCCC(O)c2ccc3ccccc3c2)cc1 (centres unmarked) [Cpd 16]
HMEC
  MTT HMEC: 25 µM

## O=C(/C=C/c1ccc(CNc2cccc(Cl)c2)cc1)NO [Cpd 18]
HDAC [2]
  HDAC inhibition IC50: ~16 µg/mL

## Nc1ccc(-c2cccs2)cc1-c1cccs1 [Cpd 19]
C. glabrata (ATCC 90030) [1]; with ketoconazole, C. glabrata (ATCC 90030)
  conc. for 4-fold synergy (24 hr): 0.5 (24 hr) μg/ml

## O=C(Cc1ccccc1)NC(=S)Nc1ccc(Nc2ccnc3ccsc23)cc1 [Cpd 20]
HDAC [2]
  HDAC inhibition IC50: > 20 µg/mL
  HDAC inhibition, per cent in parentheses beside IC50 >20: 16%
HMEC
  MTT HMEC: 50 µM

## N#Cc1ccc(-c2ccc(OCCC(=O)NO)cc2)cc1 [Cpd 21]
HMEC
  MTT HMEC: 50 µM

## O=C(NO)c1ccc(CN2c3ccccc3NC(=O)[C@H]2Cc2ccc3ccccc3c2)cc1 [Cpd 22]
HDAC [2]
  HDAC inhibition IC50: ~0.6 µg/mL
HMEC
  MTT HMEC: 8 µM

## O=C(NO)c1ccc(CN2c3ccccc3NC(=O)[C@H]2Cc2cccc(C(F)(F)F)c2)cc1 [Cpd 23]
HDAC [2]
  HDAC inhibition IC50: ~0.6 µg/mL

## CC(Cc1ccc(C(C)(C)C)cc1)CN1C[C@@H](C)O[C@@H](C)C1 (some centres unmarked) [Fenpropimorph, fenpropimorph, reference compound]
C. glabrata (ATCC 90030) [1]; Nakaseomyces glabratus, ATCC90030, fenpropimorph alone, C. glabrata, read-out: Fenpropimorph MIC
  MIC: 6.25 µg/mL

## C[C@@H]([C@H](N)C(=O)N[C@H](C(=O)O)[C@H]1O[C@@H](n2ccc(=O)[nH]c2=O)[C@H](O)[C@@H]1O)[C@H](O)c1ccc(O)cn1 [Nikkomycin, nikkomycin, reference compound]
C. albicans (ATCC 90028); Candida albicans, ATCC90028, read-out: Nikkomycin MIC
  MIC: 100 µg/mL

## O=C(CCCCCCC(=O)Nc1ccccc1)NO [SAHA, suberoylanilide hydroxamic acid, reference compound]
C. albicans (ATCC 90028); [7]
  MIC80: > 128 µg/mL
C. glabrata (ATCC 90030) [1]; [8]
  MIC80: > 64 µg/mL
HMEC
  MTT HMEC: 18 µM

## CC(/C=C/C(=O)NO)=C\[C@@H](C)C(=O)c1ccc(N(C)C)cc1 [TSA, trichostatin A, reference compound]
C. albicans (ATCC 90028); [7]
  MIC80: > 128 µg/mL
C. glabrata (ATCC 90030) [1]; [8]
  MIC80: 64 µg/mL
A. fumigatus ATCC 1022; Aspergillus fumigatus, ATCC1022, A. fumigatus ATCC 1022, read-out: MIC80
  MIC80: 64 to 128 µg/mL
A. fumigatus ATCC 1022; [9]
  conc. for 4-fold synergy: 4 µg/mL
HDAC [2]
  HDAC inhibition IC50: 0.07 µg/mL
HDAC [3]
  HDAC inhibition IC50: ~0.06 µg/mL
HDAC [4]
  HDAC inhibition IC50: 0.01 µg/mL
HMEC
  MTT HMEC: 1 µM

## CN(C/C=C/C#CC(C)(C)C)Cc1cccc2ccccc12 [Terbinafine, terbinafine, reference compound]
C. albicans (ATCC 90028); Candida albicans, ATCC90028, terbinafine alone, C. albicans, read-out: Terbinafine MIC
  MIC: 0.39 µg/mL

## CC(/C=C/C(=O)NO)=C\C(C)Cc1ccc(N(C)C)cc1 (centres unmarked) [drawing 125]
HMEC
  MTT HMEC: 44 µM

## CC(/C=C/C(=O)NO)=C\C(C)Cc1ccc(N(C)C)cc1 (centres unmarked) [drawing 131]
C. glabrata (ATCC 90030) [1]; with itraconazole, C. glabrata (ATCC 90030)
  conc. for 4-fold synergy (24 hr): 1.56 (24 hr) μg/ml
HMEC
  MTT HMEC: 44 µM

## CC(/C=C/C(=O)NO)=C\C(C)Cc1ccc(N(C)C)cc1 (centres unmarked) [drawing 137]
HMEC
  MTT HMEC: 44 µM

## CC(/C=C/C(=O)NO)=C\C(C)Cc1ccc(N(C)C)cc1 (centres unmarked) [drawing 143]
HMEC; Table 9 head
  MTT HMEC: 4.4e-05 µM

## O=C(Cc1ccc(CCCCc2ccccc2)cc1)NO [drawing 144]
HMEC; Table 9 head
  MTT HMEC: 1.3e-05 µM

## O=C(Cc1ccc(CCCc2ccccc2)cc1)NO [drawing 145]
HMEC; Table 9 head
  MTT HMEC: 4.7e-05 µM

## O=C(CCc1ccc(CCCc2ccccc2)cc1)NO [drawing 146]
HMEC; Table 9 head
  MTT HMEC: 4e-05 µM

## O=C(CCc1ccc(CCc2ccccc2)cc1)NO [drawing 147]
HMEC; Table 9 head
  MTT HMEC: 1e-05 µM

## CC(/C=C/C(=O)NO)=C\C(C)Cc1ccc(N(C)C)cc1 (centres unmarked) [drawing 148]
A. fumigatus ATCC 1022; [10]
  conc. for 4-fold synergy: 0.25 µg/mL
HDAC [4]
  HDAC inhibition IC50: 2.0 µg/mL
HMEC
  MTT HMEC: 44 µM

## O=C(Cc1ccc(CCCCc2ccccc2)cc1)NO [drawing 149]
A. fumigatus ATCC 1022; [10]
  conc. for 4-fold synergy: >1 µg/mL

## CC(/C=C/C(=O)NO)=C\C(C)Cc1ccc(N(C)C)cc1 (centres unmarked) [drawing 150]
A. fumigatus ATCC 1022; [11]
  conc. for 4-fold synergy: 0.25 µg/mL
HDAC [4]
  HDAC inhibition IC50: 2.0 µg/mL
HMEC
  MTT HMEC: 44 µM

## O=C(Cc1ccc(CCCCc2ccccc2)cc1)NO [drawing 151]
A. fumigatus ATCC 1022; [11]
  conc. for 4-fold synergy: >1 µg/mL

## CC(/C=C/C(=O)NO)=C\C(C)Cc1ccc(N(C)C)cc1 (centres unmarked) [drawing 152]
A. fumigatus ATCC 1022; [12]
  conc. for 4-fold synergy: 0.25 µg/mL
HDAC [4]
  HDAC inhibition IC50: 2.0 µg/mL
HMEC
  MTT HMEC: 44 µM

## O=C(Cc1ccc(CCCCc2ccccc2)cc1)NO [drawing 153]
A. fumigatus ATCC 1022; [12]
  conc. for 4-fold synergy: 1 µg/mL

## OC(Cn1cncn1)(Cn1cncn1)c1ccc(F)cc1F [fluconazole]
C. glabrata (ATCC 90030) [5]
  frequency of resistant C. glabrata mutants: 5×10^−6
C. dubliniensis; 48 h, read-out: FLU MIC
  MIC: 0.12 µg/mL

## C[C@@H](c1ncncc1F)[C@](O)(Cn1cncn1)c1ccc(F)cc1F [voriconazole, reference compound]
C. dubliniensis; voriconazole alone, C. dubliniensis clinical isolates, CLSI M27-A2, 48 hour endpoint, read-out: VOR MIC
  MIC: 0.007 µg/mL

## Oxamflatin [reference compound]
C. albicans (ATCC 90028); compound alone, C. albicans (ATCC 90028)
  MIC80: >64 µg/mL
C. albicans (ATCC 90028); with ketoconazole, C. albicans (ATCC 90028), 48 hours
  conc. for 4-fold synergy: 16 µg/mL
C. glabrata (ATCC 90030) [1]; compound alone, C. glabrata (ATCC 90030)
  MIC80: >64 µg/mL
C. glabrata (ATCC 90030) [1]; with ketoconazole, C. glabrata (ATCC 90030), 48 hours
  conc. for 4-fold synergy: 128 µg/mL
A. fumigatus ATCC 1022; A. fumigatus ATCC 1022
  MIC80: >128 µg/mL
A. fumigatus ATCC 1022; [9]
  conc. for 4-fold synergy: >128 µg/mL
HDAC [2]
  HDAC inhibition IC50: >20 µg/mL
HDAC [3]
  HDAC inhibition IC50: ~7 µg/mL
HDAC [4]
  HDAC inhibition IC50: 5.0 µg/mL
HMEC
  MTT HMEC: 2 µM
